According to US10815272B2, “CD31 peptides” (INSTITUT NATIONAL DE LA SANTE ET DE LA RECHERCHE MEDICALE …, priority 2012, dated 2020):
pEC50: −log10 of the molar value. Values joined by “and” are separate entries in the source; they are usually repeats but may differ in a detail not shown here. Identical values can stand only once. Non-standard residues stand in square brackets, D forms with d. Residues, ends and D or L forms follow the SMILES beside them. No end group written: not given here.

Columns and labels:
[1] = solubility comparison of peptides; assay type: physicochemical; details: for maximum soubility: in the minimal solvent
From the text: (§1) The solubility, activity and stability (resistance to freezing/thawing) of the P8F and P8RI peptides were compared to previously used peptides comprising the membrane-proximal sequences of CD31.

[2] = system: occlusive thrombus in apoE KO mice; experiment: acute thrombosis model, ligation of the left common carotid artery in atherosclerotic apoE KO mice; assay type: in vivo
Method: Atherosclerotic mice were treated with P8F at 2.5, 5 or 10 mg/kg/day, with aspirin as a positive control and vehicle as a negative control.
The width of the columns is proportional to the number of mice included in each group (Aspirin=5, “2.5”=7, “5”=11, “10”=7, Vehicle=8). P<0.05 for all groups vs vehicle (Veh).
The P8F sequence was also used in vivo (subcutaneous administration of different doses: 2.5, 5 and 10 mg/kg/d) in atherosclerotic mice (apoE KO, 35 weeks of age, male, chow diet) subjected to the ligation of the left common carotid artery (a model of acute thrombosis). Due to advanced age, most of the mice had already developed an atherosclerotic lesion close to the site where the ligation was performed.

[3] = stability, resistance to repeated freeze-thaw cycles (loss of activity); assay type: physicochemical; details: number of cycles after which activity was diminished or abolished
Method: as §1
Stability was determined by subjecting the peptides to repeated freeze-thaw cycles and determining the number of cycles after which ED 50 was increased and/or biological activity abolished.

Jurkat T cells = experiment: calcium mobilization test using Jurkat T cells after TCR stimulation; assay type: cell-based
Method: Jurkat T cells were preincubated with the fluo 3-AM calcium probe and stimulated by cross-linking the TCR with anti-CD3 antibodies and secondary antibody F(ab′)2 fragments.
Jurkat T cells (10×10^6/ml) were preincubated with the fluo 3-AM calcium probe and stimulated by cross-linking the TCR with anti-CD3 antibodies and secondary antibody F(ab′)2 fragments.
Activity was determined using the calcium mobilization test using Jurkat T cells, as described above.

[4] = system: human platelet aggregation; experiment: platelet aggregation on collagen-coated microcapillaries under flow (whole blood perfusion); assay type: cell-based; details: soluble peptide, 1500 seconds^−1, first 5 minutes
Method: The microcapillaries of Vena8 Fluoro+™ biochip (400 μm width×100 μm depth×20 mm length, Cellix) were coated with 2.5 mg/ml insoluble horse type I collagen overnight at 4° C. and then blocked with 0.1% HSA for 1 hour at room temperature. Human peripheral whole blood, anticoagulated with P-PACK (a direct thrombin inhibitor, non-chelating agent) was labeled with 5 μM DiOC6 for 10 minutes before perfusion with the Cellix pump at 1500 seconds^−1 through the coated capillaries. The interaction of platelets with the matrix was viewed in real time under a fluorescence microscope and was saved for off-line analysis. The surface covered by aggregated platelets was analyzed frame by frame (24 frames/s) over the first 5 minutes and expressed as coverage %.

Compound | minimal solvent [1] | solubility in water [1] | maximum soubility [1] | further results
CC(C)C[C@@H](NC(=O)[C@@H](C)NC(=O)[C@H]1CCCN1C(=O)[C@@H](Cc1c[nH]c2ccccc12)NC(=O)[C@H](N)CCCCN)C(=O)N[C@H](Cc1ccccc1)C(=O)N[C@@H](C(=O)N[C@H](CCCNC(=N)N)C(=O)O)C(C)C [P8RI, H-kwpalfvr-OH] (H-[dK][dW][dP][dA][dL][dF][dV][dR]-OH) | water | soluble in water | 30.5 mg/mL | –
CC(=O)Oc1ccccc1C(=O)O [aspirin, reference compound] | – | – | – | occlusive thrombus found ([2]; aspirin s.c. 150 mg/kg/d): No occlusive thrombus
H-RVFLAPWK-OH [P8F] | water | soluble in water | 28.1 mg/mL | antithrombotic effect relative to reference drug ([2]; 5 mg/Kg/d s.c., vs aspirin 150 mg/kg/d s.c.): same extent of antithrombotic effect as the reference drug; occlusive thrombus found ([2]; 5 mg/ml group (so in the source)): No occlusive thrombus; number of sections showing an occlusive thrombus, out of 1000 sections/sample ([2]; P8F-treated mice vs vehicle): significantly lowered; appearance of an occlusive thrombus ([2]; s.c. 2.5, 5 and 10 mg/kg/d, all tested doses): effective in preventing the appearance of an occlusive thrombus; maximum freeze/thaw cycles [3]: 3 cycles; intracellular calcium mobilization (median fluorescence intensity of fluo-3AM probe) (Jurkat T cells; 60 μg/ml peptide, Jurkat cells, TCR stimulation with anti-CD3 + F(ab')2): delayed and reduced; pEC50 (Jurkat T cells; Jurkat cells stimulated with antiCD3+Fab antibodies, read-out: ED 50 (minimal dose producing 50 percent of the maximum obtainable inhibition of intracellular calcium mobilization)): 4.60; human platelet aggregation (surface coverage %) [4]: inhibit human platelet aggregation in a dose dependent manner
SMRTSPRSSTLAVRVFLAPWKK [P22 mouse, reference compound] | 10% Acetonitrile, and 5% acetic acid | – | 15.9 mg/mL | –
VRVFLAPWKK [PepReg, reference compound] | 10% Acetonitrile, and 5% acetic acid | – | 8.1 mg/mL | –
